From PMC9147192, “Small Molecule Arranged Thermal Proximity Coaggregation (smarTPCA)—A Novel Approach to Characterize Protein–Protein Interactions in Living Cells by Similar Isothermal Dose–Responses” (International Journal of Molecular Sciences, 2022)
Several values for one entry are separate records, joined by “and”; a condition that tells them apart may be missing. Equal entries are not always repeated.

What was measured:
[1] = target: MAPK14 (Homo sapiens, UniProt Q16539); assay: CETSA in living HL-60 cells, immunoblot; assay type: cell-based
MAPK14 (Homo sapiens, UniProt Q16539), sequence (Q16539 whole entry): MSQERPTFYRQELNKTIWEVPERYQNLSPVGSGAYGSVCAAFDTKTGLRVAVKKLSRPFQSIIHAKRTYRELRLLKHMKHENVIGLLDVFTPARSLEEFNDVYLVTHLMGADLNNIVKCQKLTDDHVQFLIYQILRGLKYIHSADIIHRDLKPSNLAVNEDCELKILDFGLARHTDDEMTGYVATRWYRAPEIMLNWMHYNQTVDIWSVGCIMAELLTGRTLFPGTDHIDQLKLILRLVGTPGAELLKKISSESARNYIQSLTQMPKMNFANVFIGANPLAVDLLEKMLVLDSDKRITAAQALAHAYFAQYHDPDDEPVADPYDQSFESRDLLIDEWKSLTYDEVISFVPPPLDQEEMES
Procedure: First, we conducted CETSA experiments according to Jafari et al.. […] Subsequent SDS-PAGE and immunoblotting were performed according to optimized conditions allowing for parallel detection of MAPK14, MAPKAPK2, MAPKAPK3, and GSK-3α (Supplementary Figure S1).
HL-60 cells (ATCC No. CCL-240) were expanded to about […] in 80 mL cell culture medium (RPMI-1640 supplemented with 10% (v/v) FBS, 1% (v/v) penicillin-streptomycin and 1% (v/v) L-glutamine solution) and divided into four aliquots (20 mL each, 25 million cells per flask). […] The same volume of DMSO was added to the remaining aliquot serving as the vehicle (DMSO) control. After incubation (1 h, 37 °C, 5% CO2, in cell culture CO2 incubator), the cell suspensions were transferred into 50 mL conical tubes, cell number and viability were determined, and after centrifugation (300 relative centrifugal force (rcf), 3 min, room temperature (r.t.)), the supernatants were completely removed and discarded. The cells were washed using 20 mL Dulbecco’s phosphate-buffered saline (PBS), respectively, by resuspension and centrifugation (300 rcf, 3 min, r.t.). After the complete removal of the supernatants, the cells were transferred into pre-weighed 2 mL Eppendorf tubes using 0.5 mL PBS (r.t.), respectively, for resuspending. After centrifugation (300 rcf, 3 min, r.t.) and removing as much as possible of the supernatants, the cell wet weights were determined.
The suspensions were shortly centrifuged (1 s or less) using a benchtop centrifuge that was equipped with an inset for PCR tubes to release trapped air and to achieve an even liquid level without pelleting the cells. The 100 µL cell suspensions were then temperature treated by a 7 min pre-incubation at r.t., a 3 min incubation at the following different temperatures in the PCR cycler (DNA Engine Tetrad 2, lid temperature 70 °C, gradient block 1: 36–55 °C, gradient block 2: 48–67 °C), and a 3 min post-incubation at r.t. in a metal heating block for uniform heat dissipation.
The cells were lysed by four freeze/thaw cycles consisting of thawing the samples (in a heat block set to 25 °C and shaking at 1250 rpm) accompanied by mixing them several times by inversion and then shock freezing them again in liquid nitrogen. The resulting lysates were kept cold (on ice or 4 °C) from then on. After centrifugation (20,000 rcf, 30 min, 4 °C) to pellet the cell debris together with precipitated and aggregated proteins, the supernatants were recovered and, after determining the total protein concentration (Pierce 660 nm Protein Assay, BSA as standard), the resulting cell extracts containing the fraction of soluble, non-denatured proteins were shock frozen in liquid nitrogen and stored at −80 °C.
For each sample set comprising either ten temperature range samples or ten compound concentration range samples, the same volume of the cell extracts containing the fraction of soluble, non-denatured proteins was used for further analysis. This volume was determined using the two lowest temperature samples (36.5 and 41.2 °C) per temperature range sample set so that they contained an average of 5 µg total protein (e.g., 2.78 µL for all temperature range samples of a sample set whose two lowest temperature samples contain an average of 1.8 mg/mL protein). For the compound concentration range experiments, all samples of a set were used for averaging.

[2] = tested on: MAPK14; set-up: method as in Seashore-Ludlow et al., Biochemistry 2018; conditions: MAPK14 only, extrapolated to 50°C and extracted from figure 3b; ref Seashore-Ludlow et al., Biochemistry 2018; cited from earlier work
[3] = target: MYLK (Homo sapiens, UniProt Q15746); assay: TPP-CCR in living HL-60 cells
MYLK, sequence (Q16539 2-360 partner limits assumed): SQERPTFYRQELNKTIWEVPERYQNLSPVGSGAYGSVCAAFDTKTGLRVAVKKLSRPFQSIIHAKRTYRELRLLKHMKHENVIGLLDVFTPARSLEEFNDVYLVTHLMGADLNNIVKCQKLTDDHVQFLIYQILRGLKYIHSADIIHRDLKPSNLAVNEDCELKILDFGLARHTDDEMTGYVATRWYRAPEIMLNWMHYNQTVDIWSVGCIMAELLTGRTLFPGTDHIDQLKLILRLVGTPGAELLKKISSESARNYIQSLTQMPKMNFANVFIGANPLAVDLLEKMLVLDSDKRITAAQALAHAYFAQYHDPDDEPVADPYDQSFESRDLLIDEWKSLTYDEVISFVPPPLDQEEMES
MYLK, sequence (Q15746 whole entry): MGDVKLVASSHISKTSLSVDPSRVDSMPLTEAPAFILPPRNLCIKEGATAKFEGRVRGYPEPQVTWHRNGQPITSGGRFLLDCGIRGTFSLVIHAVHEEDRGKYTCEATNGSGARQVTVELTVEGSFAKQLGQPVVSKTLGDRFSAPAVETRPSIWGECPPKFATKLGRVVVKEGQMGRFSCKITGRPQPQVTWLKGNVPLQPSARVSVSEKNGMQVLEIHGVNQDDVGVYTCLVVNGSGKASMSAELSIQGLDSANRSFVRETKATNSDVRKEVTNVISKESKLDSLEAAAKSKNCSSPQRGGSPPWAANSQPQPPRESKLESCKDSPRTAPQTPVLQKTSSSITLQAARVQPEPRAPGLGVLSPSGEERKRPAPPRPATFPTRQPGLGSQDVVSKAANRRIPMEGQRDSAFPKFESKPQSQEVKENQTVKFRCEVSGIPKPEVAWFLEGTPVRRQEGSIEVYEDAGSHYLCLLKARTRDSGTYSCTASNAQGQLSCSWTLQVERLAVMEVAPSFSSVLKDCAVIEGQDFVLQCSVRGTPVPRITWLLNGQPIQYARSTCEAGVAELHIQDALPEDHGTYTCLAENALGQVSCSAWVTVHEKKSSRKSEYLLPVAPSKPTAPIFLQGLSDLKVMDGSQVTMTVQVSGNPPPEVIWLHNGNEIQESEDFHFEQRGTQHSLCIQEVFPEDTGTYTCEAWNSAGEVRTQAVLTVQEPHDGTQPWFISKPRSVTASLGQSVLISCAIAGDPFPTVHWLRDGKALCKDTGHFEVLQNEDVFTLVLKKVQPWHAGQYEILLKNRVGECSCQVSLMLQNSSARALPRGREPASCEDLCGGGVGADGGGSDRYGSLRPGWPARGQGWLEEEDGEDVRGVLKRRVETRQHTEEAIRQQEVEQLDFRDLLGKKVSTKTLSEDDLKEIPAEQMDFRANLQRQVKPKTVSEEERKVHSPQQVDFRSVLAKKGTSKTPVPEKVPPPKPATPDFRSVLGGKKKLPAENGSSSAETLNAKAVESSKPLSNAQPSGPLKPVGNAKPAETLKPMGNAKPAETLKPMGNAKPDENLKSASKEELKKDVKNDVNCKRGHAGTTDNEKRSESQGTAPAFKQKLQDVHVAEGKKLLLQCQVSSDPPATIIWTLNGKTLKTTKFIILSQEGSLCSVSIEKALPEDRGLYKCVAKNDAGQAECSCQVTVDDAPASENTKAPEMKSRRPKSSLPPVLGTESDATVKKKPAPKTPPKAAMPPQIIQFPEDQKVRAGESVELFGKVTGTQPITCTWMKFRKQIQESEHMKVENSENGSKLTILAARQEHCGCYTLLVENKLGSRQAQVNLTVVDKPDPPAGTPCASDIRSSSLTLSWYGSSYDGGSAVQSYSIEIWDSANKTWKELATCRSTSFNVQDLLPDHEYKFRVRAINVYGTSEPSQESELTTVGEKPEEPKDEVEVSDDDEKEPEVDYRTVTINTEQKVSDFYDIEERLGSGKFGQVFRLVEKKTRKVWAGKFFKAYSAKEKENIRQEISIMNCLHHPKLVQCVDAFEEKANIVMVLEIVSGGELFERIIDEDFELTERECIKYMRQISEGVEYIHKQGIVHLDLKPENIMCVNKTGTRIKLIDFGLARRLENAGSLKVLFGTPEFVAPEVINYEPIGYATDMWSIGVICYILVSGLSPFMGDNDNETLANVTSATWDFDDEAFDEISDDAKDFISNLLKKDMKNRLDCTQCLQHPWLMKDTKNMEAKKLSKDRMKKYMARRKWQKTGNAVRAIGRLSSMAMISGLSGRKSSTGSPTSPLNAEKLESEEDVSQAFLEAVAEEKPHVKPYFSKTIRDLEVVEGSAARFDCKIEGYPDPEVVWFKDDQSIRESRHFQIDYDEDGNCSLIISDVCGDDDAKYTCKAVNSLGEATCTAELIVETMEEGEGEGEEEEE

[4] = tested on: MAPK8; set-up: method as in PMID 23398362; conditions: cited from earlier work
[5] = tested on: MAPKAPK3; set-up: method as in PMID 23398362; conditions: cited from earlier work
[6] = tested on: MAPKAPK2; set-up: method as in PMID 22037378; conditions: cited from earlier work

Cn1c(NC[C@@H](N)Cc2ccccc2)nc(-c2ccncc2)c(-c2ccc3ccccc3c2)c1=O [AMG-548]
ΔTm at 20 µM ([1]; HL-60, living HL-60 cells, 20 µM inhibitor, read-out: ΔTm to DMSO (MAPK14)): 14.8 °C
Tm ([1]; MAPK14, living cells): 60.58 °C
ΔTm to DMSO ([1]; MAPK14, living cells): 14.76 °C
Tm (MAPK14) ([1]; living HL-60 cells, 20 µM inhibitor): 60.6 ± 0.5 °C and 60.58 °C
ΔTm to DMSO (MAPK14) ([1]; living HL-60 cells, 20 µM inhibitor, 20 µM): 14.76 °C
pEC50, Cell extract [2]: 8.14
EC50 [3]: 6.03 nM
Hill slope (MYLK) ([3]; living HL-60 cells, […] °C, TMT-MS): 0.44

C[S+]([O-])c1ccc(-c2nc(-c3ccncc3)c(-c3ccc(F)cc3)[nH]2)cc1 (centres unmarked) [SB203580]
activity against MAPK8 [4]: inactivity
activity against MAPKAPK3 [5]: inactivity
activity towards MAPKAPK2 [6]: inactivity
